According to patent US12324841B2, “Methods of treating cancer with a combination of an anti-PD-1 antibody and an anti-tissue factor antibody-drug conjugate” (GENMAB A/S, priority 2018, dated 2025):

Tests used:
[1] = system: murine tumor cells that stably express human TF; test: Syngeneic tumor model: immunization with drug-killed human TF positive murine tumor cells, then tumor challenge; assay type: in vivo, Balb/c mice; details: mice immunized with tumor cells killed by 1-5 μg per ml tisotumab vedotin or 100 nM MMAE
Description: Mouse tumor cells are transfected with plasmid constructs encoding human tissue factor (TF) and sgRNA-guided Cas9 nuclease (sgRNA/Cas9) to generate a murine cell line that expresses the human TF. Fluorescence activated cell sorting (FACS) yields a clonal population of murine tumor cells that stably express human TF, these cells are then treated with 1 μg to 5 μg per ml of tisotumab vedotin or 100 nM of MMAE for 4 days. In order to prepare dying cells for immunization, treated murine tumor cells are overlaid atop Histopaque, and centrifuged at 2000 g for 30 minutes. Dead and dying cells are pelleted underneath the Histopaque layer, and viability assessed by trypan blue exclusion. A sample with approximately <20% live cells as measured by trypan blue exclusion is obtained. Flash-frozen tumor cells are prepared by submerging the cells in liquid nitrogen for 10 seconds, followed by immersion in 37° C. water until completely thawed. The liquid nitrogen freeze-thaw process is repeated 5 times. Dead and dying human TF positive tumor cells are resuspended in phosphate buffered saline (PBS) and 2×10^6 cells are injected into the peritoneum of immune-competent Balb/c mice. Seven days later, mice receive a second immunization with dead and dying cells prepared in the same manner.
Fourteen days after initial immunization with the dead and dying human TF positive tumor cells, mice are subcutaneously implanted with 5×10^6 wild-type tumor cells and monitored for tumor growth. […] As these effects occur in the absence of any administered therapeutic agent, the administration of cells killed by tisotumab vedotin or MMAE is sufficient to generate long-lasting protective immune memory against subsequent tumor cell challenge. Protective immune memory is amplified by treating these mice with tisotumab vedotin in combination with an antibody that binds to murine PD-1.

[2] = system: MDA-MB-231 cells (breast adenocarcinoma); test: MDA-MB-231 xenograft model in humanized NSG mice; assay type: in vivo; details: IV, weekly
Description: Mice were subcutaneously inoculated with 5×10^6 MDA-MB-231 cells (breast adenocarcinoma; American Tissue Culture Collection (ATCC), cat. no. HTB-26), in 100 μL phosphate-buffered saline (PBS). Before inoculation, cells were cultured in DMEM with high glucose and HEPES without L-glutamine (Lonza, cat. no. BE12-[…]), 10% (v/v) donor bovine serum with iron New Zealand Origin (Thermo Fisher Scientific, DBSI, cat. no. 10371-029), 2 mM L-glutamine (Lonza, cat. no. BE17-[…]), 1 mM Na-pyruvate (Lonza, cat. no. BE13-[…]), MEM non-essential amino acids (Life Technologies, cat. no. 11140) and 1% (v/v) penicillin/streptomycin (Lonza, cat. no. DE17-[…]), in CellSTACK culture chambers (Corning, cat. no. 3313). Tumor size was determined by caliper measurement at least two times a week and tumor volume was calculated as 0.52×length×width^2. […] The first dose of the anti-PD-1 antibody (i.e., pembrolizumab) was 10 mg/kg, followed by 5 mg/kg every five days for a maximum of six treatments. […] The IgG1 isotype control antibody is the b12 antibody which is known to bind to HIV-1 gp120. […] Mice were housed in individually ventilated (IVC) cages, five mice per cage and identified by ear tags. […] Statistical comparison of tumor burden was performed using Mann-Whitney analysis on the last day that all treatment groups were intact. Kaplan-Meier analysis was performed based on tumor volume (>500 mm^3).

## tisotumab vedotin: antibody-drug conjugate comprising an antibody that binds to tissue factor (TF), a protease-cleavable linker, and the microtubule disrupting agent MMAE
[1]
  survival after challenge with wild-type tumor cells: increased survival
  tumor growth after challenge with wild-type tumor cells: delayed tumor growth
[2]; tisotumab vedotin alone 0.5 mg/kg
  tumor burden as assessed by tumor volume: efficiently reduced tumor burden
[2]; tisotumab vedotin alone 1.0 mg/kg
  tumor burden as assessed by tumor volume: efficiently reduced tumor burden
